# Earlier results as cited in patent US6472228B2, “Composition and methods for synthesis of novel tracers for detecting amphetamine and methamphetamine in samples” (Lifepoint, Inc., priority 2000, dated 2002).
# Conditions: GC/MASS
smiles,measurement,value
CN[C@@H](C)Cc1ccccc1 [methamphetamine],detectable in saliva samples after the last dose,up to 2 days
